Assays:
[1] = tested on: Digitaria sanguinalis (DIGSA); assay: Glasshouse adjuvancy test for nicosulfuron on DIGSA; assay type: in vivo
Protocol: (§1) The biological efficacies of blends of an oleyl 20 ethoxylate uncapped surfactant with an oleyl 20 ethoxylate surfactant with an n-hexyl ether cap as adjuvants for the herbicide nicosulfuron were tested in a glasshouse against three weed species sown into standard soil in pots and cultivated under controlled conditions in a glasshouse (24/18° C. day/night; 16 hours light; 65% humidity). Nicosulfuron was added to the spray tank as a standard WG (water dispersible granule) formulation. The plants were sprayed with nicosulfuron at rates of 15 or 60 grams of pesticide per hectare using a laboratory track sprayer which delivered the aqueous spray composition at a rate of 200 litres per hectare, using a flat fan nozzle (Teejet 11002VS) at 2 bar. The adjuvants were added to the spray solution at a total rate of 0.1 or 0.2% w/v in all cases and at extra lower rates for the oleyl 20EO alone and its 1:1 blend with the oleyl 20EO n-hexyl ether to show the dose response to these adjuvants. All spray solutions also contained 10% w/w of iso-propanol. The weed species and their BBCH growth stage at spraying were Chenopodium album (CHEAL; growth stage 15), Digitaria sanguinalis (DIGSA; growth stage 14), and Commelina benghalensis (COMBE; growth stage 14). Each spray test was replicated three times. The test plants were then grown in a glasshouse under controlled conditions (24/18° C. day/night; 16 hours light; 65% humidity) and watered twice a day. The efficacy of the herbicide was assessed visually and expressed as a percentage of the leaf area killed. Samples were assessed at a time period of 21 days following application. The following tables (3-8) show the effect of blends of the two surfactants at a total concentration of 0.2 and 0.1%. In each case the blends were 1:0, 3:1, 1:1, 1:3 and 0:1 w/w of oleyl 20EO:oleyl 20 EO n-hexyl ether. The biological efficacies of blends of oleyl 20 ethoxylate and oleyl 20EO ethoxylate with a benzoate cap as adjuvants for the herbicide nicosulfuron were tested in a glasshouse using the same method as for ‘Example 1’ but against just two weed species and with just 0.2% w/v total adjuvant concentration. The weed species and their BBCH growth stage at spraying HI were Chenopodium album (CHEAL; growth stage 13-15) and Digitaria sanguinalis (DIGSA; growth stage 14-22).

[2] = Cloud point measurement (absorbance at 500 nm as a function of temperature); assay type: physicochemical
Protocol: Consistent with the standard method for measuring the cloud point of surfactants, the cloud point of each of the above blends was measured at a total concentration of 1% w/w in water using a Perkin Elmer spectrophotometer fitted with a PTP6 temperature controller. The absorbance of the solution at 500 nm wavelength was determined as a function of temperature. The cloud point was recorded as the onset of a rapid increase in absorbance as the solution began to cloud.
Cloud point—the measurements relied on the same method as for ‘Example 1’
Cloud points—were measured using the same method as in Example 1.
This example provides de-gelling, cloud point and adjuvancy data for dodecyl 23 ethoxylate with n-hexyl cap and hexadecyl 20 ethoxylate with n-hexyl cap Cloud points were measured as described in example 1 for 1% aqueous solutions of the capped and uncapped surfactants both individually and as blends (see Table 30). Degelling temperatures were also measured as outlined in example 1 for 25, 30, 35 and 40% aqueous solutions of the capped and uncapped surfactants both individually and as blends (see Table 31).
This example provides de-gelling, cloud point and adjuvancy data for oleyl 20 ethoxylate with n-butyl, n-pentyl or benzyl ether caps end capped oleyl 20 ethoxylate. Cloud points were measured as described in example 1 for 1% aqueous solutions of the capped and uncapped surfactants both individually and as blends. Degelling temperatures were also measured as outlined in example 1 for 25, 30, 35 and 40% aqueous solutions o of the capped and uncapped surfactants both individually and as blends.

[3] = tested on: Commelina benghalensis (COMBE); assay: Glasshouse adjuvancy test for nicosulfuron on COMBE; assay type: in vivo; conditions: 21 DAA
Protocol: as §1, with “ether.” for “ether. The biological efficacies of blends of oleyl 20 ethoxylate and oleyl 20EO ethoxylate with a benzoate cap as adjuvants for the herbicide nicosulfuron were tested in a glasshouse using the same method as for ‘Example 1’ but against just two weed species and with just 0.2% w/v total adjuvant concentration. The weed species and their BBCH growth stage at spraying HI were Chenopodium album (CHEAL; growth stage 13-15) and Digitaria sanguinalis (DIGSA; growth stage 14-22).”

[4] = tested on: Chenopodium album (CHEAL); assay: Glasshouse adjuvancy test for nicosulfuron on CHEAL; assay type: in vivo
Protocol: as §1, with “ether.” for “ether. The biological efficacies of blends of oleyl 20 ethoxylate and oleyl 20EO ethoxylate with a benzoate cap as adjuvants for the herbicide nicosulfuron were tested in a glasshouse using the same method as for ‘Example 1’ but against just two weed species and with just 0.2% w/v total adjuvant concentration. The weed species and their BBCH growth stage at spraying HI were Chenopodium album (CHEAL; growth stage 13-15) and Digitaria sanguinalis (DIGSA; growth stage 14-22).”
The biological efficacies of blends of oleyl 20 ethoxylate and oleyl 20EO ethoxylate with a benzoate cap as adjuvants for the herbicide nicosulfuron were tested in a glasshouse using the same method as for ‘Example 1’ but against just two weed species and with just 0.2% w/v total adjuvant concentration. The weed species and their BBCH growth stage at spraying HI were Chenopodium album (CHEAL; growth stage 13-15) and Digitaria sanguinalis (DIGSA; growth stage 14-22).
The biological efficacies of 1:1 blends of an oleyl 20 ethoxylate uncapped surfactant with oleyl 20E ethoxylate surfactants with hexanoyl, n-octanoyl or 2-ethyl hexanoyl ester caps as adjuvants for the herbicide nicosulfuron were tested in a glasshouse using the same method as for ‘Example 1’ but against just one weed species and at 0.2% w/v tital adjuvant concentration. The weed species and its BBCH growth stage at spraying was Chenopodium album (CHEAL; growth stage 15).

[5] = dose response, nicosulfuron 15 g ai/ha, adjuvant 0.05%
[6] = dose response, nicosulfuron 15 g ai/ha, adjuvant 0.1%
[7] = dose response, nicosulfuron 15 g ai/ha, adjuvant 0.2%
[8] = dose response, nicosulfuron 60 g ai/ha, adjuvant 0.05%
[9] = dose response, nicosulfuron 60 g ai/ha, adjuvant 0.1%
[10] = dose response, nicosulfuron 60 g ai/ha, adjuvant 0.2%
[11] = nicosulfuron 15 g ai/ha, 0.1% total surfactant concentration, 21 days, Table 8
[12] = nicosulfuron 15 g ai/ha, 0.2% total surfactant concentration, 21 days, Table 7
[13] = nicosulfuron 60 g ai/ha, 0.1% total surfactant concentration, 21 days, Table 8
[14] = nicosulfuron 60 g ai/ha, 0.2% total surfactant concentration, 21 days, Table 7
[15] = total concentration 1% w/w in water, Table 2
[16] = nicosulfuron 15 g ai/ha, 0.1% surfactant total concentration
[17] = nicosulfuron 15 g ai/ha, 0.2% surfactant total concentration
[18] = nicosulfuron 60 g ai/ha, 0.1% surfactant total concentration
[19] = nicosulfuron 60 g ai/ha, 0.2% surfactant total concentration
[20] = nicosulfuron 15 g ai/ha, 0.1% total surfactant concentration, 21 days, Table 6
[21] = nicosulfuron 15 g ai/ha, 0.2% total surfactant concentration, 21 days, Table 5
[22] = nicosulfuron 60 g ai/ha, 0.1% total surfactant concentration, 21 days, Table 6
[23] = nicosulfuron 60 g ai/ha, 0.2% total surfactant concentration, 21 days, Table 5

With `CCCCCCCC/C=C\CCCCCCCCOCCOCCOCCOCCOCCOCCOCCOCCOCCOCCOCCOCCOCCOCCOCCOCCOCCOCCOCCOCCO` [Oleyl 20EO, oleyl 20 ethoxylate] the Mean control [1, 5] was 60.0%, the Mean control [1, 6] was 76.7% and the Mean control [1, 7] was 83.3%. The Mean control [1, 8] was 53.3%, the Mean control [1, 9] was 60.0% and the Mean control [1, 10] was 80.0%. It also gave a Mean control [1, 11] of 76.7%, a Mean control [1, 12] of 83.3% and a Mean control ([1]; nicosulfuron 15 g ai/ha, 0.2% w/v total adjuvant, Example 3, growth stage 14-22) of 91.3%. It also gave a Mean control [1, 13] of 60%, a Mean control [1, 14] of 80% and a Mean control ([1]; nicosulfuron 60 g ai/ha, 0.2% w/v total adjuvant, Example 3, growth stage 14-22) of 85.0%. The Cloud point ([2]; 1% aqueous solutions, Table 34) was >90.0 °C, the Cloud point ([2]; 1%, Table 15) was >95.0 °C and the Cloud point ([2]; 1%, Table 20) was >95.0 °C. The Cloud point [2, 15] was >90 °C, the Mean control [3, 16] was 63.3% and the Mean control [3, 17] was 80%. It also gave a Mean control [3, 18] of 63.3%, a Mean control [3, 19] of 72.5% and a Mean control [4, 5] of 81.7%. For the same molecule, the Mean control [4, 6] was 86.7%, the Mean control [4, 7] was 83.3% and the Mean control [4, 8] was 83.3%. It also gave a Mean control [4, 9] of 80.0%, a Mean control [4, 10] of 80.0% and a Mean control [4, 20] of 86.7%. For the same molecule, the Mean control [4, 21] was 83.3%, the Mean control ([4]; nicosulfuron 15 g ai/ha, 0.2% w/v total adjuvant, Example 3, growth stage 13-15) was 66.7% and the Mean control ([4]; nicosulfuron 15 g ai/ha, 0.2% w/v total adjuvant, Example 4, growth stage 15) was 76.8%. For the same molecule, the Mean control [4, 22] was 80%, the Mean control [4, 23] was 80% and the Mean control ([4]; nicosulfuron 60 g ai/ha, 0.2% w/v total adjuvant, Example 3, growth stage 13-15) was 68.3%. The Mean control ([4]; nicosulfuron 60 g ai/ha, 0.2% w/v total adjuvant, Example 4, growth stage 15) was 71.7%.

For Oleyl 20EO n-hexyl ether, the Mean control [1, 11] was 81.7%, the Mean control [1, 12] was 73.3% and the Mean control [1, 13] was 75%. It also gave a Mean control [1, 14] of 81.7%, a Cloud point [2, 15] of 52.0 °C and a Mean control [3, 16] of 70%. The Mean control [3, 17] was 80%, the Mean control [3, 18] was 73.3% and the Mean control [3, 19] was 72.5%. It also gave a Mean control [4, 20] of 85%, a Mean control [4, 21] of 81.7% and a Mean control [4, 22] of 85%. It also gave a Mean control [4, 23] of 88.3%.

Source: patent publication US11779014B2, “Adjuvants” (SYNGENTA PARTICIPATIONS AG, priority 2017, dated 2023)
